Data on 23 compounds can be found in ChEMBL document CHEMBL1142801, “Bradykinin B1 antagonists: SAR studies in the 2,3-diaminopyridine series” (Bioorg Med Chem Lett, 2005).

The target of one data set is T1, B1 bradykinin receptor (Homo sapiens, UniProt P46663).
T1 sequence (P46663 whole entry): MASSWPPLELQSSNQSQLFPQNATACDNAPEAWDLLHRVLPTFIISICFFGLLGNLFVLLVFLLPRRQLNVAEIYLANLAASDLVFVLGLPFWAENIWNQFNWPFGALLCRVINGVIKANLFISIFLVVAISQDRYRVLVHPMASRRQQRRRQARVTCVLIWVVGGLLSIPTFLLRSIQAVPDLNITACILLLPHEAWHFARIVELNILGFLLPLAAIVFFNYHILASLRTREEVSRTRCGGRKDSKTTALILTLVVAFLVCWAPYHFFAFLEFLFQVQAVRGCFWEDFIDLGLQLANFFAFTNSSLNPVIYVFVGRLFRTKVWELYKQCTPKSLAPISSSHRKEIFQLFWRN
The experiment in a line: Binding affinity against Human bradykinin receptor B1.

Data set [1] can be described thus: Partition coefficient (logP). Particulars: octanol/water.
The nature of data set [2]: Clearance in Sprague Dawley rats. Type of data set: ADME, organism-based. The settings on record: rat, in vivo.
Data set [3] is described as follows: Bioavailability of compound upon oral administration of 10 mg/kg (dose) in Sprague Dawley rat. Type of data set: ADME, organism-based. Particulars: in vivo.
Data set [4] in a line: Protein binding using 10% human serum. The data set is classed as ADME. The settings on record: for fraction unbound: 10% human serum, read-out: Protein binding (converted).
Data set [5] in a line: Volume of distribution was determined in Sprague Dawley rats. Type of data set: ADME, organism-based. The settings on record: rat, in vivo.
A short description of data set [6]: Half life in Sprague Dawley rats. Type of data set: ADME. Particulars: rat, in vivo.

Where only a bound is given, the exact number is not on record here.

Broadly, the Ki is a measure of affinity in units of concentration, obtained from inhibition or displacement. In general, logP refers to a log measure of how a compound divides between an organic and an aqueous phase. Low readings indicate lower lipophilicity, high ones higher lipophilicity. Compound `COC(=O)c1ccccc1C1CCC(CNc2nccc(C)c2NC(=O)CC#N)CC1` (stereo unspecified) returned an inhibition constant Ki at B1 bradykinin receptor of 385 nM. The compound also showed a logP in data set [1] (logP) of 2.7.
In general, clearance refers to a measure of how efficiently the substance is removed, as volume per time. A word on the bioavailability: it is dose-corrected exposure relative to a reference, in per cent. Low values mean little systemic uptake, high ones much systemic uptake. The term Vd denotes a proportionality between amount in the body and measured concentration, not a real space. Read a high Vd as extensive tissue distribution. A word on the half-life: it is the time needed for the level to fall by half in the phase considered. In data set [2], `Cc1noc([C@H]2CC=CC[C@@H]2c2ccc(CNc3nccc(C)c3NC(=O)CC#N)cc2)n1` had a clearance of 17 mL/min/kg. Further, at B1 bradykinin receptor, the inhibitory constant (Ki) was 2 nM. In addition, the logP in data set [1] (logP) worked out at 2.4. Also, in data set [3], the bioavailability turned out to be 18%. Moreover, the fraction unbound in data set [4] is 0.08. For the same compound, the Vd in data set [5] was 0.47 L/kg. Further, in data set [6], the half-life was 1.2 h.
Turning to `COC(=O)c1ccccc1-c1ccc(CNc2nccc(C)c2NC(=O)CC#N)cc1`, the clearance in data set [2] stood at 4.3 mL/min/kg. The same compound showed a Ki on B1 bradykinin receptor of 11 nM. Moreover, in data set [1] (logP), the logP was found to be 2.5. For the same compound, in data set [3], the bioavailability turned out to be 18%. For the same compound, the fraction unbound in data set [4] was 0.01. Further, the distribution volume (Vd) in data set [5] is 0.36 L/kg. Moreover, the half-life in data set [6] is 1.9 h.
In the case of `COC(=O)c1ccccc1N1CC=C(CNc2nccc(C)c2NC(=O)CC#N)CC1`, the Ki at B1 bradykinin receptor turned out to be 130 nM.
Take `COC(=O)C1=C(c2ccc(CNc3nccc(C)c3NC(=O)CC#N)cc2)CCCC1`: on B1 bradykinin receptor, the affinity, expressed as Ki, was 35 nM. Moreover, the logP in data set [1] (logP) was 3. In addition, the fraction unbound in data set [4] was 0.04.
Regarding `COC(=O)c1ccccc1N1CCC(CNc2nccc(C)c2NC(=O)CC#N)CC1`, the Ki at B1 bradykinin receptor worked out at 13 nM. The logP in data set [1] (logP) came to 2.1. Besides, in data set [4], the fraction unbound is 0.07.
The compound `COC(=O)N1CCCCC1c1ccc(CNc2nccc(C)c2NC(=O)CC#N)cc1` (stereo unspecified) returned a Ki on B1 bradykinin receptor of more than 5000 nM.
In the case of `COC(=O)C1CCCCN1c1ccc(CNc2nccc(C)c2NC(=O)CC#N)cc1` (stereo unspecified), the Ki on B1 bradykinin receptor is more than 5000 nM. In data set [1] (logP), this compound came in with a lipophilicity (logP) of 2.7. Also, the fraction unbound in data set [4] was 0.22.
For `COC(=O)c1ccccc1N1CCC(C)(CNc2nccc(C)c2NC(=O)CC#N)CC1` the same measures were 3500 nM, 2.6 and 0.1.
As for `COC(=O)c1ccccc1N1CCC(O)(CNc2nccc(C)c2NC(=O)CC#N)CC1`, the clearance in data set [2] was determined as 2.2 mL/min/kg. Further, on B1 bradykinin receptor, the Ki is more than 5000 nM. The compound also displayed a bioavailability in data set [3] of 22%. For the same compound, in data set [4], the fraction unbound is 0.35. In data set [5], this compound returned a Vd of 0.24 L/kg. Further, the half-life in data set [6] is 3 h.
The compound `COC(=O)C1CCCN1c1ccc(CNc2nccc(C)c2NC(=O)CC#N)cc1` (stereo unspecified) displayed a Ki on B1 bradykinin receptor of more than 5000 nM.
In the case of `COC(=O)C1=C(c2ccc(CNc3nccc(C)c3NC(=O)CC#N)cc2)CCC1`, the affinity at B1 bradykinin receptor corresponds to a Ki of 126 nM.
`COC(=O)c1cccn1-c1ccc(CNc2nccc(C)c2NC(=O)CC#N)cc1`: the affinity on B1 bradykinin receptor corresponds to a Ki of 250 nM. The compound also yielded a logP in data set [1] (logP) of 2.4. In addition, the fraction unbound in data set [4] is 0.19.
For `COC(=O)c1ccccc1C1=CCC(CNc2nccc(C)c2NC(=O)CC#N)CC1` (stereo unspecified) the same measures were 25 nM, 2.5 and 0.01.
For `COC(=O)C1CCCCC1c1ccc(CNc2nccc(C)c2NC(=O)CC#N)cc1` (racemic), the clearance in data set [2] is 30 mL/min/kg. In addition, the Ki on B1 bradykinin receptor was 2.2 nM. This compound also returned a logP in data set [1] (logP) of 2.7. For the same compound, in data set [3], the bioavailability is 4%. For the same compound, in data set [4], the fraction unbound was 0.05. In data set [5], this compound had a Vd of 0.38 L/kg. This compound also had a half-life in data set [6] of 0.5 h.
For `COC(=O)C1C2CCC(C2)C1c1ccc(CNc2nccc(C)c2NC(=O)CC#N)cc1` (racemic), on B1 bradykinin receptor, the Ki is 730 nM.
The compound `COC(=O)C1C2CCC(CC2)C1c1ccc(CNc2nccc(C)c2NC(=O)CC#N)cc1` (racemic) registered an inhibition constant Ki on B1 bradykinin receptor of 54 nM. In data set [1], the logP was found to be 3.4.
The compound `COC(=O)C1CC=CCC1c1ccc(CNc2nccc(C)c2NC(=O)CC#N)cc1` (racemic; cis) came in with a Ki at B1 bradykinin receptor of 7 nM. In addition, in data set [1], the logP was determined as 3.3. In addition, the Protein binding in data set [4] (serum) was 96%.
At B1 bradykinin receptor, `COC(=O)C1C2C=CC(CC2)C1c1ccc(CNc2nccc(C)c2NC(=O)CC#N)cc1` (racemic; form 1) yielded a Ki of 142 nM. The logP in data set [1] is 3.1.
On B1 bradykinin receptor, `COC(=O)C1C2C=CC(CC2)C1c1ccc(CNc2nccc(C)c2NC(=O)CC#N)cc1` (racemic; form 2) displayed a Ki of 38 nM.
For the compound `COC(=O)C1CC=CCC1c1ccc(CNc2nccc(C)c2NC(=O)CC#N)cc1` (racemic; trans), in data set [2], the clearance is 29 mL/min/kg. At B1 bradykinin receptor, this compound had a Ki of 0.83 nM. Further, the logP in data set [1] (logP) was determined as 2.7. The compound also displayed a bioavailability in data set [3] of 5%. Besides, the fraction unbound in data set [4] is 0.04. The Vd in data set [5] is 0.55 L/kg. Besides, in data set [6], the half-life is 1 h.
On B1 bradykinin receptor, `COC(=O)C1CC=CCC1c1ccc(CNc2nccc(C)c2NC(=O)CC#N)cc1` (single isomer, unassigned; (+)) yielded a Ki of 1.3 nM. Also, in data set [1], the logP came to 2.3.
For `COC(=O)C1CC=CCC1c1ccc(CNc2nccc(C)c2NC(=O)CC#N)cc1` (stereo in doubt; (-)18) the same measures were 1 nM and 2.4.
